The source of these data is ChEMBL document CHEMBL1201862, “PubChem BioAssay data set” (2004).

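Compound exposure: 48 hours, 5 concentrations, 96-well plates. GI50 = concentration required for 50% inhibition of growth.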 Activity calls are given as the source filed them. Rule as the data show it: active = GI50 up to about 1.1 µM and inactive = higher. Numbered stars: 1 amine (or outer) side, 2 acyl side, 3 side chain; on linkers, the order of the positions; unused ones are H or OH. Bridge positions count the residues as written; N and C are the ends. Square brackets hold non-standard residues; d marks the D form. Peptide text beside a SMILES is read from it. X58 = COc1c(N[*:1])cccc1C(=O)O[C@H](C(=O)[C@H](C)C(=O)[*:2])C(C)C; X57 = CC(C)C[C@H](C(=O)[*:2])C(C)C(=O)C1CCCN1[*:1]; NMeY = CN[C@@H](Cc1ccc(O)cc1)C(=O)O; Lac = C[C@H](O)C(=O)O

Test systems include NCI-H460; HOP-62; SF-295; OVCAR-3; SK-MEL-28; Malme-3M; MCF7; KM12; SW-620; RPMI-8226; HCT-116; ACHN; NCI-H23; UACC-257; HCT-15; HL-60; MDA-MB-231; U-251; LOX IMVI; SR.
Holding throughout (test): NCI-60 cell line screen, 48 h

For `COC(=O)[C@]1(c2cc3ccccc3[nH]2)CC2CN(C(=O)OCc3ccccc3)C1C=C2OC` (stereo not given in full), the GI50 was 33.1 µM (inactive) with NCI-H460; 31 µM (inactive) in the assay on HOP-62; 27.2 µM (inactive) in the assay on SF-295; 24 µM (inactive) in the assay on OVCAR-3; 38 µM (inactive) with SK-MEL-28; 28.9 µM (inactive) in the assay with Malme-3M. For the same molecule, the GI50 in the assay with MCF7 is 25.6 µM (inactive); in the assay with KM12 it was 29 µM (inactive); in the assay on SW-620 it was 41.5 µM (inactive); with RPMI-8226 it was 26.5 µM (inactive); with HCT-116 it was 28.8 µM (inactive); in the assay with ACHN, 25.8 µM (inactive). Also, the GI50 was 40.7 µM (inactive) in the assay with NCI-H23; 23 µM (inactive) with UACC-257; 34.8 µM in the assay on HCT-15; 22.8 µM (inactive) in the assay on HL-60; 19.9 µM (inactive) in the assay with MDA-MB-231; 26.6 µM (inactive) in the assay on U-251. The GI50 in the assay with LOX IMVI is 34 µM (inactive).

Consider `COc1cc([C@H]2CC(=O)C[C@H](c3cc(OC)c(OC)c(OC)c3)C23C(=O)c2ccccc2C3=O)cc(OC)c1OC`, for which the GI50 was 91.2 µM (inactive) in the assay with NCI-H460; 51.5 µM (inactive) in the assay with HOP-62; 47.1 µM (inactive) in the assay on SF-295; 57 µM (inactive) in the assay with OVCAR-3; > 100 µM (inactive) in the assay on SK-MEL-28; > 100 µM (inactive) in the assay on Malme-3M. Moreover, the GI50 is 71.3 µM (inactive) in the assay with MCF7; > 100 µM (inactive) in the assay with KM12; > 100 µM (inactive) in the assay with SW-620; > 100 µM (inactive) in the assay with RPMI-8226; 19.8 µM (inactive) in the assay with HCT-116; 59.4 µM (inactive) in the assay with ACHN. Moreover, the GI50 in the assay on NCI-H23 is > 100 µM (inactive); in the assay on UACC-257 it was > 100 µM (inactive); with HCT-15, more than 100 µM; in the assay with MDA-MB-231, 56.9 µM (inactive); with SR it was > 100 µM (inactive); in the assay on U-251, 41.3 µM (inactive).

Turning to `Cc1ncc([N+](=O)[O-])n1CCN=[N+]=[N-]`, the GI50 with NCI-H460, in the assay with HOP-62, in the assay on SF-295, with OVCAR-3, in the assay with SK-MEL-28 and with Malme-3M was > 100 µM (inactive) throughout. Moreover, the GI50 in the assay with MCF7, with KM12, in the assay on SW-620, in the assay with RPMI-8226, with HCT-116 and in the assay on ACHN was > 100 µM (inactive) each time. For the same molecule, the GI50 was > 100 µM (inactive) in the assay on NCI-H23; > 100 µM (inactive) with UACC-257; more than 100 µM in the assay on HCT-15; > 100 µM (inactive) in the assay with MDA-MB-231; > 100 µM (inactive) with SR; > 100 µM (inactive) with U-251.

Take `COc1ccc(C[C@H]2C(=O)O[C@H](C)[C@H](NC(=O)[C@@H](CC(C)C)C(C)C(=O)C3CCCN3C(=O)[C@H](C)O)C(=O)Nc3cccc(c3OC)C(=O)O[C@@H](C(C)C)C(=O)[C@H](C)C(=O)N[C@@H](CC(C)C)C(=O)N3CCC[C@H]3C(=O)N2C)cc1` (stereo not given in full) (H-[Lac][X57]T[X58]LP[NMeY](Me); ester 3-C): the GI50 in the assay on NCI-H460 is 9.02 µM (inactive); with HOP-62, > 12.5 µM (inactive); with SF-295, > 12.5 µM (inactive); in the assay with OVCAR-3, 7.38 µM (inactive); in the assay with SK-MEL-28 it was > 12.5 µM (inactive); in the assay on Malme-3M, > 12.5 µM (inactive). Besides, the GI50 in the assay with MCF7 was > 12.5 µM (inactive); with KM12, > 12.5 µM (inactive); in the assay with SW-620, 9.29 µM (inactive); with RPMI-8226 it was 6.53 µM (inactive); in the assay with HCT-116, 6.12 µM (inactive); in the assay on ACHN, 12.2 µM (inactive). Besides, the GI50 is > 12.5 µM (inactive) in the assay on NCI-H23; > 12.5 µM (inactive) with UACC-257; more than 12.5 µM in the assay on HCT-15; > 12.5 µM (inactive) in the assay on MDA-MB-231; 5.09 µM (inactive) in the assay with SR; > 12.5 µM (inactive) in the assay with U-251. Further, in the assay with LOX IMVI, the GI50 was 9.66 µM (inactive).

For the molecule `c1ccc(CSC(SCc2ccccc2)c2ccc3c(c2)OCO3)cc1`, the GI50 with NCI-H460, in the assay with HOP-62, in the assay on SF-295, in the assay with OVCAR-3, in the assay on SK-MEL-28 and in the assay with Malme-3M was > 10 µM (inactive) in each case. Besides, the GI50 in the assay with MCF7, with KM12, in the assay with SW-620, in the assay with RPMI-8226, in the assay on HCT-116 and with ACHN was > 10 µM (inactive) each time. Further, the GI50 in the assay on NCI-H23 is > 10 µM (inactive); in the assay on UACC-257, > 10 µM (inactive); in the assay with HCT-15 it was more than 10 µM; with HL-60, > 10 µM (inactive); in the assay with MDA-MB-231, > 10 µM (inactive); in the assay on U-251, > 10 µM (inactive). Besides, in the assay on LOX IMVI, the GI50 is > 10 µM (inactive).

With `COc1ccc(-c2nnc3nc4ccccc4n3c2O)cc1`, the GI50 in the assay with NCI-H460 is > 100 µM (inactive); in the assay with HOP-62, > 100 µM (inactive); in the assay on SF-295, 10 µM (inactive); in the assay on SK-MEL-28, > 100 µM (inactive); in the assay on Malme-3M it was > 100 µM (inactive); with MCF7, > 100 µM (inactive). Besides, the GI50 in the assay on KM12, in the assay on SW-620, in the assay with HCT-116, in the assay on ACHN, with NCI-H23 and in the assay with UACC-257 was > 100 µM (inactive) in each case. For the same molecule, the GI50 is more than 100 µM in the assay on HCT-15; > 100 µM (inactive) in the assay on HL-60; 31 µM (inactive) with MDA-MB-231; 90.2 µM (inactive) in the assay on U-251; > 100 µM (inactive) in the assay on LOX IMVI.

For `O=C1Nc2ccc(Cl)cc2C(=O)N2CCC[C@@H]12`, the GI50 in the assay with NCI-H460, with HOP-62, in the assay on SF-295, in the assay with OVCAR-3, in the assay on SK-MEL-28 and in the assay with Malme-3M was > 100 µM (inactive) in each case. For the same molecule, the GI50 with MCF7, in the assay with KM12, in the assay with SW-620, in the assay with RPMI-8226, with HCT-116 and in the assay with ACHN was > 100 µM (inactive) each time. In addition, the GI50 in the assay on NCI-H23 is > 100 µM (inactive); in the assay on UACC-257 it was > 100 µM (inactive); in the assay on HCT-15, more than 100 µM; in the assay with MDA-MB-231, > 100 µM (inactive); with SR, > 100 µM (inactive); in the assay with U-251, > 100 µM (inactive). Further, the GI50 in the assay with LOX IMVI was > 100 µM (inactive).

`Cc1ccc(S(=O)(=O)N2CCN3C(=O)c4ccccc4C32c2ccc(F)cc2)cc1` (stereo not given): the GI50 in the assay with NCI-H460 is 67.6 µM (inactive); in the assay with HOP-62 it was > 100 µM (inactive); in the assay with SF-295, 85.7 µM (inactive); in the assay on OVCAR-3, > 100 µM (inactive); with SK-MEL-28 it was 71 µM (inactive); in the assay with Malme-3M, > 100 µM (inactive). For the same molecule, the GI50 is 43.4 µM (inactive) with MCF7; 43.7 µM (inactive) in the assay on KM12; 87.9 µM (inactive) in the assay with SW-620; 23.8 µM (inactive) in the assay with RPMI-8226; 42.1 µM (inactive) in the assay on HCT-116; 95.1 µM (inactive) with ACHN. For the same molecule, the GI50 in the assay with NCI-H23 is 97.7 µM (inactive); with UACC-257, 56 µM (inactive); in the assay with HCT-15, 80.9 µM; in the assay with MDA-MB-231 it was > 100 µM (inactive); in the assay with SR it was 16.9 µM (inactive); with U-251, > 100 µM (inactive).

On to `CC1(C)SCc2nc3ccccc3n21`, for which the GI50 in the assay with NCI-H460, in the assay with HOP-62, with SF-295, in the assay with OVCAR-3, in the assay with SK-MEL-28 and in the assay on Malme-3M was > 100 µM (inactive) in each case. In addition, the GI50 with MCF7, with KM12, in the assay with SW-620, in the assay on RPMI-8226, in the assay on HCT-116 and with ACHN was > 100 µM (inactive) in each case. The GI50 in the assay with NCI-H23 was > 100 µM (inactive); in the assay with UACC-257, > 100 µM (inactive); in the assay on HCT-15, more than 100 µM; in the assay on HL-60, > 100 µM (inactive); with MDA-MB-231, > 100 µM (inactive); in the assay on U-251, > 100 µM (inactive). For the same molecule, in the assay with LOX IMVI, the GI50 was > 100 µM (inactive).

`CC(C)(C)OC/C=C1\C(=O)O[C@H]2C[C@@H](O[Si](C)(C)C(C)(C)C)C[C@@H]12`: the GI50 with NCI-H460 was > 100 µM (inactive); in the assay on HOP-62 it was 85.3 µM (inactive); in the assay on SF-295, 48.6 µM (inactive); with OVCAR-3 it was 49.9 µM (inactive); in the assay with SK-MEL-28, > 100 µM (inactive); with Malme-3M it was > 100 µM (inactive). In addition, the GI50 with MCF7 is 35.4 µM (inactive); in the assay on KM12, 67.9 µM (inactive); in the assay on SW-620, > 100 µM (inactive); in the assay with RPMI-8226, 46 µM (inactive); in the assay on HCT-116, 26.4 µM (inactive); in the assay on ACHN, > 100 µM (inactive). Besides, the GI50 with NCI-H23 was 52.4 µM (inactive); with UACC-257, 62.4 µM (inactive); in the assay on HCT-15 it was more than 100 µM; with MDA-MB-231 it was > 100 µM (inactive); in the assay with SR, 37.3 µM (inactive); in the assay with U-251, 83 µM (inactive). The GI50 with LOX IMVI is 98.2 µM (inactive).
